Assay results from patent US7592345B2, “Piperazine and [1,4]diazepan derivatives as NK antagonists” (Hoffmann-La Roche Inc., priority 2007, dated 2009).

biological target: T1, recombinant human NK3 receptor (Homo sapiens, UniProt P29371); experiment: [3H]SR142801 competition binding assay; details: [3H]SR142801, membranes from HEK293 cells transiently expressing recombinant human NK3 receptor; read-out: hNK3 Ki
T1 construct: expressed in transfected cells; host or cells: HEK293 cells (transient expression), membranes
T1 sequence (P29371 1-465): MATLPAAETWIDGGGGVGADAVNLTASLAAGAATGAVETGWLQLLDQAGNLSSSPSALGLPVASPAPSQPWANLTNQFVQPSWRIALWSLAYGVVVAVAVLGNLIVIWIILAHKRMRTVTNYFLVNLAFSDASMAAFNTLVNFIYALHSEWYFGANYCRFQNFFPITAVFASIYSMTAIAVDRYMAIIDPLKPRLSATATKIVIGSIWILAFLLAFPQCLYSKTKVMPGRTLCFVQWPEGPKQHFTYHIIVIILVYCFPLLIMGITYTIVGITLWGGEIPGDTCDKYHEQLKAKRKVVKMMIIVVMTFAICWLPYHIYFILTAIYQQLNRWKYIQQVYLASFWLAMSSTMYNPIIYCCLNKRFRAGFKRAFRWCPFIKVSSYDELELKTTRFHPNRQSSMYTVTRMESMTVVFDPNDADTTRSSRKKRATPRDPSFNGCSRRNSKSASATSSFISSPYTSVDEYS
Method: [^3H]SR142801 Competition Binding Assay
hNK3 receptor binding experiment were performed using [^3H]SR142801 (Catalog No. TRK1035, specific activity: 74.0 Ci/mmol, Amersham, GE Healthcare UK limited, Buckinghamshire, UK) and membrane isolated from HEK293 cells transiently expressing recombinant human NK3 receptor. After thawing, the membrane homogenates were centrifuged at 48,000×g for 10 min at 4° C., the pellets were resuspended in the 50 mM Tris-HCl, 4 mM MnCl2, 1 μM phosphoramidon, 0.1% BSA binding buffer at pH 7.4 to a final assay concentration of 5 μg protein/well. For inhibition experiments, membranes were incubated with [^3H]SR142801 at a concentration equal to KD value of radioligand and 10 concentrations of the inhibitory compound (0.0003-10 μM) (in a total reaction volume of 500 μl) for 75 min at room temperature (RT). At the end of the incubation, membranes were filtered onto unitfilter (96-well white microplate with bonded GF/C filter preincubated 1 h in 0.3% PEI+0.3% BSA, Packard BioScience, Meriden, Conn.) with a Filtermate 196 harvester (Packard BioScience) and washed 4 times with ice-cold 50 mM Tris-HCl, pH 7.4 buffer. Nonspecific binding was measured in the presence of 10 μM SB222200 for both radioligands. The radioactivity on the filter was counted (5 min) on a Packard Top-count microplate scintillation counter with quenching correction after addition of 45 μl of microscint 40 (Canberra Packard S. A., Zürich, Switzerland) and shaking for 1 h. Inhibition curves were fitted according to the Hill equation: y=100/(1+(x/IC50)^nH), where nH=slope factor using Excel-fit 4 software (Microsoft). IC50 values were derived from the inhibition curve and the affinity constant (Ki) values were calculated using the Cheng-Prussoff equation Ki=IC50/(1+[L]/KD) where [L] is the concentration of radioligand and KD is its dissociation constant at the receptor, derived from the saturation isotherm. All experiments were performed in duplicate and the mean±standard error (SEM) of the individual Ki values was calculated.

SMILES | Ki
C[C@H]1CN(CC[C@](C)(C(=O)NCc2ccc(Cl)c(Cl)c2)c2ccc(Cl)c(Cl)c2)CCN1S(C)(=O)=O (single isomer, unassigned) [Example 93, (S or R)—N-(3,4-Dichloro-benzyl)-2-(3,4-dichloro-phenyl)-4-((R)-4-methanesulfonyl-3-methyl-piperazin-1-yl)-2-methyl-butyramide] | 0.0192 µM
C[C@H]1CN(CC[C@@](C)(C(=O)NCc2ccc(Cl)c(Cl)c2)c2ccc(Cl)c(Cl)c2)CCN1S(C)(=O)=O (single isomer, unassigned) [Example 94, (R or S)—N-(3,4-Dichloro-benzyl)-2-(3,4-dichloro-phenyl)-4-((R)-4-methanesulfonyl-3-methyl-piperazin-1-yl)-2-methyl-butyramide] | 0.112 µM
CC(CCN1CCN(S(C)(=O)=O)CC1)(C(=O)N[C@@H](CO)c1ccccc1)c1ccc(Cl)c(Cl)c1 (single isomer, unassigned) [Example 128, (R or S)-2-(3,4-Dichloro-phenyl)-N-((R)-2-hydroxy-1-phenyl-ethyl)-4-(4-methanesulfonyl-piperazin-1-yl)-2-methyl-butyramide] | 0.0406 µM
CC(CCN1CCN(S(C)(=O)=O)CC1)(C(=O)N[C@@H](CO)c1ccccc1)c1ccc(Cl)c(Cl)c1 (single isomer, unassigned) [Example 129, (S or R)-2-(3,4-Dichloro-phenyl)-N-((R)-2-hydroxy-1-phenyl-ethyl)-4-(4-methanesulfonyl-piperazin-1-yl)-2-methyl-butyramide] | 0.334 µM
CN(Cc1ccc(Cl)cc1)C(=O)C(CCN1CCN(S(C)(=O)=O)CC1)c1ccc(Cl)c(Cl)c1 (stereo not shown) [Example 1, N-(4-Chloro-benzyl)-2-(3,4-dichloro-phenyl)-4-(4-methanesulfonyl-piperazin-1-yl)-N-methyl-butyramide] | 0.171 µM
CN(Cc1ccc(-c2ccncc2)cc1)C(=O)C(CCN1CCN(S(C)(=O)=O)CC1)c1ccc(Cl)c(Cl)c1 (stereo not shown) [Example 2, 2-(3,4-Dichloro-phenyl)-4-(4-methanesulfonyl-piperazin-1-yl)-N-methyl-N-(4-pyridin-4-yl-benzyl)-butyramide] | 0.315 µM
CN(Cc1ccccc1Cl)C(=O)C(CCN1CCN(S(C)(=O)=O)CC1)c1ccc(Cl)c(Cl)c1 (stereo not shown) [Example 3, N-(2-Chloro-benzyl)-2-(3,4-dichloro-phenyl)-4-(4-methanesulfonyl-piperazin-1-yl)-N-methyl-butyramide] | 0.655 µM
CN(Cc1ccccc1)C(=O)C(CCN1CCN(S(C)(=O)=O)CC1)c1ccc(Cl)c(Cl)c1 (stereo not shown) [Example 4, N-Benzyl-2-(3,4-dichloro-phenyl)-4-(4-methanesulfonyl-piperazin-1-yl)-N-methyl-butyramide] | 0.355 µM
CN(Cc1ccc(C(F)(F)F)cc1)C(=O)C(CCN1CCN(S(C)(=O)=O)CC1)c1ccc(Cl)c(Cl)c1 (stereo not shown) [Example 5, 2-(3,4-Dichloro-phenyl)-4-(4-methanesulfonyl-piperazin-1-yl)-N-methyl-N-(4-trifluoromethyl-benzyl)-butyramide] | 0.136 µM
COc1ccc(CN(C)C(=O)C(CCN2CCN(S(C)(=O)=O)CC2)c2ccc(Cl)c(Cl)c2)cc1F (stereo not shown) [Example 6, 2-(3,4-Dichloro-phenyl)-N-(3-fluoro-4-methoxy-benzyl)-4-(4-methanesulfonyl-piperazin-1-yl)-N-methyl-butyramide] | 0.69 µM
CN(Cc1cccc(F)c1)C(=O)C(CCN1CCN(S(C)(=O)=O)CC1)c1ccc(Cl)c(Cl)c1 (stereo not shown) [Example 7, 2-(3,4-Dichloro-phenyl)-N-(3-fluoro-benzyl)-4-(4-methanesulfonyl-piperazin-1-yl)-N-methyl-butyramide] | 0.388 µM
CC(CCN1CCN(S(C)(=O)=O)CC1)(C(=O)NCc1cccc(C(F)(F)F)c1)c1ccc(Cl)c(Cl)c1 (stereo not shown) [Example 8, 2-(3,4-Dichloro-phenyl)-4-(4-methanesulfonyl-piperazin-1-yl)-2-methyl-N-(3-trifluoromethyl-benzyl)-butyramide] | 0.288 µM
CC(CCN1CCN(S(C)(=O)=O)CC1)(C(=O)NCc1cccc(OC(F)(F)F)c1)c1ccc(Cl)c(Cl)c1 (stereo not shown) [Example 9, 2-(3,4-Dichloro-phenyl)-4-(4-methanesulfonyl-piperazin-1-yl)-2-methyl-N-(3-trifluoromethoxy-benzyl)-butyramide] | 0.19 µM
CN(Cc1cccc(Cl)c1)C(=O)C(C)(CCN1CCN(S(C)(=O)=O)CC1)c1ccc(Cl)c(Cl)c1 (stereo not shown) [Example 10, N-(3-Chloro-benzyl)-2-(3,4-dichloro-phenyl)-4-(4-methanesulfonyl-piperazin-1-yl)-2,N-dimethyl-butyramide] | 0.145 µM
CC(CCN1CCN(S(C)(=O)=O)CC1)(C(=O)NCc1cccc(OC(F)F)c1)c1ccc(Cl)c(Cl)c1 (stereo not shown) [Example 11, 2-(3,4-Dichloro-phenyl)-N-(3-difluoromethoxy-benzyl)-4-(4-methanesulfonyl-piperazin-1-yl)-2-methyl-butyramide] | 0.417 µM
CN(Cc1ccc(Cl)cc1)C(=O)C(C)(CCN1CCN(S(C)(=O)=O)CC1)c1ccc(Cl)c(Cl)c1 (stereo not shown) [Example 12, N-(4-Chloro-benzyl)-2-(3,4-dichloro-phenyl)-4-(4-methanesulfonyl-piperazin-1-yl)-2,N-dimethyl-butyramide] | 0.0664 µM
CC(CCN1CCN(S(C)(=O)=O)CC1)(C(=O)NCc1ccc(OC(F)F)cc1)c1ccc(Cl)c(Cl)c1 (stereo not shown) [Example 13, 2-(3,4-Dichloro-phenyl)-N-(4-difluoromethoxy-benzyl)-4-(4-methanesulfonyl-piperazin-1-yl)-2-methyl-butyramide] | 0.326 µM
CC(NC(=O)C(C)(CCN1CCN(S(C)(=O)=O)CC1)c1ccc(Cl)c(Cl)c1)c1ccc(Cl)cc1 (stereo not shown) [Example 14, N-[1-(4-Chloro-phenyl)-ethyl]-2-(3,4-dichloro-phenyl)-4-(4-methanesulfonyl-piperazin-1-yl)-2-methyl-butyramide] | 0.171 µM
COc1ccc(C(NC(=O)C(C)(CCN2CCN(S(C)(=O)=O)CC2)c2ccc(Cl)c(Cl)c2)C2CC2)cc1 (stereo not shown) [Example 15, N-[Cyclopropyl-(4-methoxy-phenyl)-methyl]-2-(3,4-dichloro-phenyl)-4-(4-methanesulfonyl-piperazin-1-yl)-2-methyl-butyramide] | 0.234 µM
CN(Cc1ccccc1Cl)C(=O)C(C)(CCN1CCN(S(C)(=O)=O)CC1)c1ccc(Cl)c(Cl)c1 (stereo not shown) [Example 16, N-(2-Chloro-benzyl)-2-(3,4-dichloro-phenyl)-4-(4-methanesulfonyl-piperazin-1-yl)-2,N-dimethyl-butyramide] | 0.169 µM
CC(CCN1CCN(S(C)(=O)=O)CC1)(C(=O)NCc1ccc(OC(F)(F)F)cc1)c1ccc(Cl)c(Cl)c1 (stereo not shown) [Example 17, 2-(3,4-Dichloro-phenyl)-4-(4-methanesulfonyl-piperazin-1-yl)-2-methyl-N-(4-trifluoromethoxy-benzyl)-butyramide] | 0.146 µM
CC(CCN1CCN(S(C)(=O)=O)CC1)(C(=O)NCc1ccc(C#N)cc1)c1ccc(Cl)c(Cl)c1 (stereo not shown) [Example 18, N-(4-Cyano-benzyl)-2-(3,4-dichloro-phenyl)-4-(4-methanesulfonyl-piperazin-1-yl)-2-methyl-butyramide] | 0.434 µM
CC(CCN1CCN(S(C)(=O)=O)CC1)(C(=O)NCc1ccccc1OC(F)(F)F)c1ccc(Cl)c(Cl)c1 (stereo not shown) [Example 19, 2-(3,4-Dichloro-phenyl)-4-(4-methanesulfonyl-piperazin-1-yl)-2-methyl-N-(2-trifluoromethoxy-benzyl)-butyramide] | 0.429 µM
CC(CCN1CCN(S(C)(=O)=O)CC1)(C(=O)NCc1ccc(C(F)(F)F)c(F)c1)c1ccc(Cl)c(Cl)c1 (stereo not shown) [Example 20, 2-(3,4-Dichloro-phenyl)-N-(3-fluoro-4-trifluoromethyl-benzyl)-4-(4-methanesulfonyl-piperazin-1-yl)-2-methyl-butyramide] | 0.0671 µM
CC(CCN1CCN(S(C)(=O)=O)CC1)(C(=O)NCc1ccc(Cl)c(Cl)c1)c1ccc(Cl)c(Cl)c1 (stereo not shown) [Example 21, N-(3,4-Dichloro-benzyl)-2-(3,4-dichloro-phenyl)-4-(4-methanesulfonyl-piperazin-1-yl)-2-methyl-butyramide] | 0.0655 µM
